Data reported in the NIST ThermoML archive (doi:10.1021/je060107n).
Numbers after ± are expanded uncertainties.

Experiment: mn = molality of the nth substance listed, in mol/kg
Conditions: 101 kPa, Liquid; for mass density: Pycnometric method; for viscosity: Capillary tube (Ostwald / Ubbelohde) method; for speed of sound: Linear variable-path acoustic interferometer

CC(=O)[O-].CC(=O)[O-].[Mg+2] [magnesium acetate] + O
Conditions | mass density [kg/m3] | speed of sound [m/s] | viscosity [mPa·s]
314.7 K, m1 = 1.608 | 1097.8 ± 0.7 | – | –
314.75 K, m1 = 2.134 | 1125.2 ± 0.8 | – | –
314.85 K, m1 = 2.622 | 1148.5 ± 0.8 | – | –
315 K, m1 = 5.165 | 1241.7 ± 0.9 | – | –
315.2 K, m1 = 0.1671 | 1003.8 ± 0.7 | – | –
315.25 K, m1 = 3.437 | 1186.9 ± 0.8 | – | –
315.55 K, m1 = 3.819 | 1198.5 ± 0.8 | – | –
315.65 K, m1 = 3.043 | 1166.4 ± 0.8 | – | –
315.85 K, m1 = 1.866 | 1110.4 ± 0.8 | – | –
316.05 K, m1 = 1.106 | 1068 ± 0.7 | – | –
316.05 K, m1 = 6.187 | 1269 ± 0.9 | – | –
316.25 K, m1 = 0.0414 | 994.01 ± 0.67 | – | –
316.35 K, m1 = 6.545 | 1276.6 ± 0.9 | – | –
316.7 K, m1 = 0.646 | 1037.6 ± 0.7 | – | –
316.95 K, m1 = 0.0831 | 996.85 ± 0.69 | – | –
317.05 K, m1 = 2.622 | 1147.3 ± 0.8 | – | –
317.1 K, m1 = 0.4247 | 1021.9 ± 0.7 | – | –
317.15 K, m1 = 1.608 | 1096.6 ± 0.7 | – | –
317.3 K, m1 = 2.134 | 1124.1 ± 0.8 | – | –
317.3 K, m1 = 5.732 | 1255.6 ± 0.9 | – | –
317.7 K, m1 = 3.819 | 1197.2 ± 0.8 | – | –
317.9 K, m1 = 6.187 | 1267.7 ± 0.9 | – | –
318 K, m1 = 4.547 | 1220.8 ± 0.9 | – | –
318.15 K, m1 = 0.0414 | – | 1539.3 ± 1.9 | 0.6244 ± 0.0082
318.15 K, m1 = 0.0831 | – | 1546 ± 1.9 | 0.6418 ± 0.0085
318.15 K, m1 = 0.1671 | – | 1552.2 ± 1.9 | 0.6857 ± 0.009
318.15 K, m1 = 0.4247 | – | 1587.9 ± 1.9 | 0.8341 ± 0.011
318.15 K, m1 = 0.646 | – | 1613.4 ± 1.9 | 0.9967 ± 0.013
318.15 K, m1 = 0.8751 | – | 1638.1 ± 1.9 | 1.163 ± 0.015
318.15 K, m1 = 1.106 | – | 1661.5 ± 2 | 1.405 ± 0.018
318.15 K, m1 = 1.354 | – | 1683.6 ± 2 | 1.679 ± 0.022
318.15 K, m1 = 1.608 | – | 1705.8 ± 2 | 1.679 ± 0.022
318.15 K, m1 = 1.866 | – | 1727.8 ± 2 | 2.437 ± 0.032
318.15 K, m1 = 2.134 | – | 1749.8 ± 2 | 2.967 ± 0.04
318.15 K, m1 = 2.411 | – | 1773.8 ± 2 | 3.777 ± 0.051
318.15 K, m1 = 2.622 | – | 1782.8 ± 2 | 4.254 ± 0.058
318.15 K, m1 = 3.043 | – | 1808.1 ± 2.1 | 5.774 ± 0.08
318.15 K, m1 = 3.437 | – | 1832 ± 2.1 | 8.453 ± 0.12
318.15 K, m1 = 3.819 | – | 1846.6 ± 2.1 | –
318.15 K, m1 = 4.001 | – | – | 12.63 ± 0.18
318.15 K, m1 = 4.547 | – | 1868.1 ± 2.1 | –
318.15 K, m1 = 4.563 | – | – | 19.6 ± 0.29
318.15 K, m1 = 4.929 | – | – | 24.03 ± 0.38
318.15 K, m1 = 5.165 | – | 1882.7 ± 2.1 | –
318.15 K, m1 = 5.41 | – | – | 41.38 ± 0.57
318.15 K, m1 = 5.732 | – | 1888.5 ± 2.2 | 53.77 ± 0.88
318.15 K, m1 = 6.187 | – | – | 87.61 ± 1.7
318.2 K, m1 = 1.866 | 1109.3 ± 0.8 | – | –
318.25 K, m1 = 6.545 | 1275.3 ± 0.9 | – | –
318.5 K, m1 = 0.0414 | 992.99 ± 0.68 | – | –
318.6 K, m1 = 1.327 | 1079.4 ± 0.8 | – | –
318.6 K, m1 = 2.411 | 1138.3 ± 0.8 | – | –
318.85 K, m1 = 5.165 | 1239 ± 0.9 | – | –
319.1 K, m1 = 1.354 | 1080.6 ± 1.1 | – | –
319.15 K, m1 = 0.646 | 1036.5 ± 0.7 | – | –
319.25 K, m1 = 2.622 | 1146.1 ± 0.8 | – | –
319.35 K, m1 = 0.8751 | 1050.8 ± 0.7 | – | –
319.4 K, m1 = 0.0831 | 995.82 ± 0.69 | – | –
319.5 K, m1 = 1.608 | 1095.5 ± 0.7 | – | –
319.5 K, m1 = 2.134 | 1122.8 ± 0.8 | – | –
319.65 K, m1 = 3.437 | 1184.4 ± 0.9 | – | –
319.95 K, m1 = 3.043 | 1164.1 ± 0.8 | – | –
319.95 K, m1 = 4.547 | 1219.5 ± 0.9 | – | –
319.95 K, m1 = 6.545 | 1273.9 ± 1 | – | –
320 K, m1 = 0.1671 | 1001.7 ± 0.7 | – | –
320.85 K, m1 = 0.0414 | 991.94 ± 0.7 | – | –
320.85 K, m1 = 5.732 | 1253 ± 0.9 | – | –
320.95 K, m1 = 1.106 | 1065.8 ± 0.8 | – | –
321.4 K, m1 = 0.646 | 1035.4 ± 0.7 | – | –
321.55 K, m1 = 6.187 | 1265.1 ± 0.9 | – | –
321.7 K, m1 = 3.819 | 1194.7 ± 0.9 | – | –
321.8 K, m1 = 6.545 | 1272.5 ± 0.9 | – | –
322.15 K, m1 = 0.4247 | 1019.9 ± 0.7 | – | –
322.15 K, m1 = 3.043 | 1162.9 ± 0.8 | – | –
322.3 K, m1 = 0.1671 | 1000.8 ± 0.7 | – | –
322.45 K, m1 = 5.165 | 1236.5 ± 0.9 | – | –
322.85 K, m1 = 1.866 | 1107.1 ± 0.8 | – | –
323.05 K, m1 = 1.106 | 1064.8 ± 0.7 | – | –
323.05 K, m1 = 1.327 | 1077.2 ± 0.8 | – | –
323.05 K, m1 = 2.411 | 1135.8 ± 0.9 | – | –
323.15 K, m1 = 0.0414 | 990.94 ± 0.66 | 1544.5 ± 1.9 | 0.5741 ± 0.0076
323.15 K, m1 = 0.0831 | – | 1549.2 ± 1.9 | 0.5893 ± 0.0078
323.15 K, m1 = 0.1671 | – | 1557.7 ± 1.9 | 0.6282 ± 0.0083
323.15 K, m1 = 0.4247 | – | 1591.1 ± 1.9 | 0.7596 ± 0.0099
323.15 K, m1 = 0.646 | – | 1615.2 ± 1.9 | 0.9059 ± 0.012
323.15 K, m1 = 0.8751 | – | 1637.7 ± 1.9 | 1.052 ± 0.014
323.15 K, m1 = 1.106 | – | 1662.2 ± 2 | 1.271 ± 0.017
323.15 K, m1 = 1.354 | – | 1683.9 ± 2 | 1.503 ± 0.021
323.15 K, m1 = 1.608 | – | 1703.7 ± 2 | 1.503 ± 0.019
323.15 K, m1 = 1.866 | – | 1725 ± 2 | 2.166 ± 0.03
323.15 K, m1 = 2.134 | – | 1746.5 ± 2 | 2.61 ± 0.034
323.15 K, m1 = 2.411 | – | 1767.3 ± 2 | 3.295 ± 0.046
323.15 K, m1 = 2.622 | – | 1778.6 ± 2 | 3.695 ± 0.049
323.15 K, m1 = 3.043 | – | 1800.3 ± 2.1 | 4.961 ± 0.064
323.15 K, m1 = 3.437 | – | 1825 ± 2.1 | 7.136 ± 0.1
323.15 K, m1 = 3.819 | – | 1837.4 ± 2.1 | –
323.15 K, m1 = 4.001 | – | – | 10.52 ± 0.14
323.15 K, m1 = 4.547 | – | 1857.2 ± 2.1 | –
323.15 K, m1 = 4.563 | – | – | 15.97 ± 0.24
323.15 K, m1 = 4.929 | – | – | 19.29 ± 0.26
323.15 K, m1 = 5.165 | – | 1871 ± 2.1 | –
323.15 K, m1 = 5.41 | – | – | 32.16 ± 0.48
323.15 K, m1 = 5.732 | – | 1874.6 ± 2.1 | 41.44 ± 0.6
323.15 K, m1 = 6.187 | – | – | 65.72 ± 1.2
323.45 K, m1 = 6.545 | 1271.3 ± 0.9 | – | –
323.5 K, m1 = 2.622 | 1143.8 ± 0.7 | – | –
323.65 K, m1 = 1.354 | 1078.3 ± 1 | – | –
323.75 K, m1 = 0.646 | 1034.3 ± 0.7 | – | –
323.75 K, m1 = 3.437 | 1181.9 ± 1.4 | – | –
323.75 K, m1 = 4.547 | 1217.1 ± 0.9 | – | –
323.95 K, m1 = 0.8751 | 1048.7 ± 0.7 | – | –
323.95 K, m1 = 2.134 | 1120.5 ± 0.9 | – | –
324.05 K, m1 = 1.608 | 1093.3 ± 0.8 | – | –
324.1 K, m1 = 0.0831 | 993.76 ± 0.64 | – | –
324.25 K, m1 = 0.4247 | 1018.8 ± 0.9 | – | –
324.25 K, m1 = 5.165 | 1235.2 ± 1 | – | –
324.55 K, m1 = 5.732 | 1250.4 ± 1 | – | –
325.15 K, m1 = 6.187 | 1262.4 ± 0.9 | – | –
325.25 K, m1 = 6.545 | 1269.9 ± 1 | – | –
325.75 K, m1 = 3.819 | 1192.2 ± 0.9 | – | –
328.55 K, m1 = 6.187 | 1259.8 ± 0.9 | – | –
